In US5874436A, “Triphenylalkyl antimicrobial agents” (priority 1997, dated 1999):
Converted amounts (≈) assume the structure as drawn.

What was measured:
Kinase A and Spo0F = target: T1, Kinase A and Spo0F (Bacillus subtilis, UniProt P16497); assay: Autophosphorylation of Kinase A and transphosphorylation of Spo0F assay (HPK in vitro assay); format: biochemical; conditions: inhibitor concentrations from 1 to 500 μM, [32P]ATP, phosphoimager
T1 construct: made in house; host or cells: E. coli (recombinant, overexpressing)
T1 sequence (P16497 1-606): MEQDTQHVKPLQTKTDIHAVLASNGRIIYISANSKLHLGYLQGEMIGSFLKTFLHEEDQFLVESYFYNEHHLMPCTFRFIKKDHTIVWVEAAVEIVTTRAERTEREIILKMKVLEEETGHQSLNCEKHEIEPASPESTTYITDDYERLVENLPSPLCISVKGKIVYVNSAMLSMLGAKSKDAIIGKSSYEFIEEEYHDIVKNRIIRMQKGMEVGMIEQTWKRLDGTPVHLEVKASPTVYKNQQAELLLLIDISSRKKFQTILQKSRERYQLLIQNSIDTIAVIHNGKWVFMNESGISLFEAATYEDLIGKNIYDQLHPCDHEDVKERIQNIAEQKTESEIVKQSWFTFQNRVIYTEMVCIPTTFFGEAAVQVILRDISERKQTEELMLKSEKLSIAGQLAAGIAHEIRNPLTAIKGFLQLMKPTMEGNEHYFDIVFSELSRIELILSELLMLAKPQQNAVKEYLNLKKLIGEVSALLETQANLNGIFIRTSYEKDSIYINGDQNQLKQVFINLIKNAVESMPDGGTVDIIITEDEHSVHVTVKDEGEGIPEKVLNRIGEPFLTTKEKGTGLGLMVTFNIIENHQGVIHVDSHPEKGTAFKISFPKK
Protocol: 1. Autophosphorylation of Kinase A and Transphosphorylation of Spo0F Assay
To study the effect of the compounds of the present invention on the signal transduction process in bacteria, the inhibiting effect of the compounds on the sporulation operon proteins Kinase A and Spo0F was examined. Specifically, the inhibition of autophosphorylation of Kinase A and the transphosphorylation of Spo0F was determined in the following assays. The Spo0F response regulator is the primary substrate for phosphorylation by the protein kinase, Kin A, involved in the sporulation process in bacteria. See D. Burbulys, K. A. Trach, J. A. Hoch, Cell, 64, 545-552 (1991). Spo0F and KinA were prepared from recombinant E. coli overexpressing the proteins (J. Cavanagh et al, Amino Acids, 6, 131-140 (1994) and references therein).
The following stock reagents were either prepared and used promptly or stored at the indicated temperature:
8 X Salts : 2M KCl (5 mL), 1M MgCl2 (800 mL), 1M CaCl2 (100 mL), 10 mg/mL phenylmethylsulfonyl fluoride (200 mL), 1 M dithioreitol (50 mL), 0.25M Na2 EDTA (32 mL) and H2 O mL (-20° C.)
5×Loading Dye: 0.5M TRIS-HCl-pH 6.8 (7.5 mL), 10% SDS (2 mL) 0.1% bromophenol blue (0.5 mL), 100% glycerol (3 mL) and 12.5 M 2-mercaptoethanol (0.3 mL)
1-1.3 mg/mL KinA:15 mM TRIS-HCl, pH 8.0, 6 mM KCl; 4 mM 2-mercaptoethanol; 40% glycerol (-20° C.)
1 mg/mL Spo0F: 17.5 mM TRIS-HCl, pH 8.0; 0.7 mM KCl; 0.7 mM MgCl2; 0.7 mM CaCl2; 5mM 2-mercaptoethanol; 30% Glycerol (-20° C.)
5% Stacking Gel: 40% 29:1 acrylamide:bis acrylamide (1.25 mL), 0.5M TRIS-HCl, pH 6.8 (2.5 mL), 10% SDS (0.1 mL), D-H2 O (6.15 mL) 10% ammonium persulfate (100 mL) and TEMED (25 mL) SDS Running Buffer: TRIS-BASE (3.02 g), glycine (14.4 g) SDS (1 g), D-H2 O (to 1L)
The reaction mixture was prepared from 8×Salts (87 μL), 1M TRIS, pH 8 (118 μL), 50% glycerol (63 μL), Spo0F (14.1 μL) and KinA (7.0 μL). Microcentrifuge tubes were charged with the reaction mixture (18.5 μL) and a 1.0 mM solution of the test compound in 5% DMSO (18.5 μL), and incubated for 15 min on ice. 100 mM ATP solution (3.0 μl, containing 625 μCi [^32 P]ATP) was added, and the mixture left for 10 minutes at room temperature. The reaction was quenched with 5×loading dye (10 μL per tube) and the samples were loaded on a prepared 5% Stacking Gel, or stored on dry ice until ready for use. The prepared wells were filled with SDS Running Buffer, samples were loaded into the wells, and 80 volts were applied to the gel until the dye front reached the bottom of the stacking gel. The voltage was then increased to 250 volts until electrophoresis was complete. Radioactive bands in the gel corresponding to phosphorylated KinA and Spo0F were imaged and quantitated with a phosphoimager.
If either enzyme was inhibited (as evidenced by the absence of labelled protein in the developed gel), an IC50 was calculated by running the assay with a range of inhibitor concentrations from 1 to 500 μM. After electrophoresis of the reaction mixtures, percent inhibition was determined by measuring the concentration of radioactive phosphorus with a phosphoimager and calculating the values using a software program (BioRad Molecular Analyst).

selected microorganisms = assay: MIC antimicrobial assay (NCCLS microdilution broth method); format: cell-based
Protocol: 2. MIC Anitimicrobial Assay
The in vitro antimicrobial activity of the compounds was determined by the microdilution broth method following the test method from the National Committee for Laboratory Standards (NCCLS). This method is described in the NCCLS Document M7-A2, Vol.10, No.8 "Methods for Dilution Antimicrobial Susceptibility Test for Bacteria that Grow Aerobically--Second Edition."
In this method two-fold serial dilutions of drug in cation supplemented Mueller-Hinton broth are added to wells in microdilution trays. The test organisms are prepared by adjusting the turbidity of actively growing broth cultures so that the final concentration of test organism after it is added to the wells is approximately 5×10^4 CFUs/well).
Following inoculation of the microdilution trays, the trays are incubated at 35° C. for 16-20 hours and then read. […] The amount of growth in the wells containing the test compound is compared with the amount of growth in the growth-control wells (no test compound) used in each tray.

Row | Compound | IC50 (Kinase A and Spo0F) [µM] | MIC (selected microorganisms) [µg/mL]
1 | O=C(/C=C/c1ccc(OCCC(c2ccccc2)(c2ccccc2)c2ccccc2)cc1)NCCO [Example 25, trans N-(2-Hydroxyethyl)-4-(3,3,3-triphenylpropoxy)-cinnamide] | 150 | > 128
2 | Cc1n(C)cc[n+]1Cc1ccc(OCCC(c2ccccc2)(c2ccccc2)c2ccccc2)cc1.[Cl-] [Example 30, 1,2-Dimethyl-3-{[4-(3,3,3-triphenylpropoxy)-phenyl]methyl}imidazolium chloride] | 28 | 2 to 8
3 | NCc1ccc2cc(OCCC(c3ccccc3)(c3ccccc3)c3ccccc3)ccc2c1 [Example 20, 6-(3,3,3-Triphenylpropoxy)-2-naphthylmethylamine] | 75 | 4 to 8 (≈ 9.02 to 18 µM)
4 | [Cl-].c1ccc(C(CCOc2ccc(C[n+]3ccccc3)cc2)(c2ccccc2)c2ccccc2)cc1 [Example 29, 1-{[4-(3,3,3-triphenylpropoxy)-phenyl]methyl}pyridinium chloride] | 6 | 2 to 4
5 | O=C(O)Cc1ccc(OCCC(c2ccccc2)(c2ccccc2)c2ccccc2)cc1 [Example 13, 2-[4-(3,3,3-Triphenylpropoxy)phenyl]acetic acid] | 50 | 8 to 16 (≈ 18.9 to 37.9 µM)
6 | O=C(O)c1ccc2cc(OCCC(c3ccccc3)(c3ccccc3)c3ccccc3)ccc2c1 [Example 17, 6-(3,3,3-Triphenylpropoxy)-2-naphthoic acid] | 300 | 4 to 64 (≈ 8.72 to 140 µM)
7 | O=C(O)Cc1cccc(OCCC(c2ccccc2)(c2ccccc2)c2ccccc2)c1 [Example 34, 2-[3-(3,3,3-Triphenylpropoxy)phenyl]acetic acid] | 38 | 32 (≈ 75.7 µM)
8 | O=C(Cc1ccc(O)cc1)OCCC(c1ccccc1)(c1ccccc1)c1ccccc1 [Example 23, 3,3,3-Triphenylpropyl 2-(4-hydroxyphenyl)acetate] | 170 | > 128
9 | O=C(CCc1ccc(O)cc1)OCCC(c1ccccc1)(c1ccccc1)c1ccccc1 [Example 24, 3,3,3-Triphenylpropyl 3-(4-hydroxyphenyl)propionate] | 160 | > 128
10 | NCCc1ccc(OCCC(c2ccccc2)(c2ccccc2)c2ccccc2)cc1 [Example 3, 2-(4-(3,3,3-triphenylpropoxy)phenyl)ethylamine] | 14 | 2 to 4 (≈ 4.91 to 9.81 µM)
11 | C[N+](C)(Cc1ccccc1)Cc1ccc(OCCC(c2ccccc2)(c2ccccc2)c2ccccc2)cc1.[Cl-] [Example 28, N-Benzyl-N,N-dimethyl-[4-(3,3,3-triphenylpropoxy)-phenyl]methyl ammonium chloride] | 13 | 2
12 | C[N+](C)(C)Cc1ccc(OCCC(c2ccccc2)(c2ccccc2)c2ccccc2)cc1.[Cl-] [Example 33, N,N,N-Trimethyl-[4-(3,3,3-triphenylpropoxy)phenyl]methylammonium chloride] | 29 | 4 to 8
13 | N=C(N)NCCc1ccc(NC(=O)CC(c2ccccc2)(c2ccccc2)c2ccccc2)cc1 [Example 18, N-[4-(2-Guanidinoethyl)phenyl]-3,3,3-triphenylpropionamide] | 51 | 4 to 16 (≈ 8.65 to 34.6 µM)
14 | O=C(O)CCc1ccc(SCCC(c2ccccc2)(c2ccccc2)c2ccccc2)cc1 [Example 14, 3-[4-(3,3,3-Triphenylpropylthio)phenyl]propionic acid] | 34 | 4 to 8 (≈ 8.84 to 17.7 µM)
15 | O=C(O)CCc1cccc(OCCC(c2ccccc2)(c2ccccc2)c2ccccc2)c1 [Example 35, 3-[3-(3,3,3-Triphenylpropoxy)phenyl]propionic acid] | 42 | 4 to 128 (≈ 9.16 to 293 µM)
16 | COc1ccc(CCN)cc1OCCC(c1ccccc1)(c1ccccc1)c1ccccc1 [Example 8, 2-(4-methoxy-3-(3,3,3-triphenylpropoxy)-phenyl)ethylamine] | 27 | 4 (≈ 9.14 µM)
